In the supplement of paper PMC6470124:

Experiments:
[1] = absolute recovery over mixed-bed multilayer solid-phase extraction; higher = better recovery; conditions: enrichment method: SPE
Procedure, shortened: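 A three-layer mixed-bed cartridge was loaded with 100–250 mL of wastewater (adjusted to pH 6.5, glass-fibre filtered) or 1000 mL of unfiltered nanopure water, then eluted with basic and subsequently acidic ethyl acetate/methanol. Standards were introduced pre-extraction, post-extraction, or not at all, at 200 ng/L for water and 1000 ng/L for wastewater, except for certain classes. Once internal standards had been added, both ionisation modes were run by liquid chromatography with high-resolution tandem mass spectrometry. Absolute recovery was derived from background-corrected response ratios of pre- against post-spiked samples, averaged over at least two replicates.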

[2] = absolute recovery over vacuum-assisted evaporative concentration; higher = better recovery; conditions: enrichment method: VEC
Procedure, shortened: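 Absolute recovery was calculated as (response ratio pre − unspiked)/(post − unspiked) × 100 from averages of ≥ 2 replicates. Influent (6 mL), effluent (15 mL), and surface and nanopure water (60 mL) samples were spiked with standards before concentration, after concentration, or not at all, at 200 ng/L for nanopure and surface water or 1000 ng/L for wastewater, with class- and compound-specific adjustments. Samples were evaporated at 55 °C and 20 mbar to about 0.3 mL, made up to 0.4 mL and centrifuged, then internal standards were added before LC-HRMS/MS analysis.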

[3] = LC retention time (Atlantis T3, 5-95% MeOH gradient, 0.1% formic acid); higher = more retained / less polar
Procedure, shortened: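 Retention times refer to reference standards measured by liquid chromatography with high-resolution tandem mass spectrometry. Separation was on an Atlantis T3 C18 column (3 × 150 mm, 3 μm) at 0.3 mL/min with a 5 to 95% methanol gradient over 17.5 min, both solvents carrying 0.1% formic acid. Positive and negative electrospray were run separately on a QExactive Plus, and TraceFinder peak integration (5 ppm tolerance, at least three points per peak) was reviewed by hand.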

SMILES | absolute recovery ([1]; nanopure water) [%] | absolute recovery ([1]; surface water) [%] | absolute recovery ([1]; wastewater effluent) [%] | absolute recovery ([1]; wastewater influent) [%] | absolute recovery ([2]; wastewater effluent) [%] | absolute recovery ([2]; wastewater influent) [%] | LC retention time [3] [min]
CC(C)Nc1nc(N)nc(O)n1 [Atrazin-desethyl-2-hydroxy] | 76.8 | 74.2 | 71.2 | 92.3 | 107 | 93.7 | 7.67
CCNc1nc(Cl)nc(NC(C)C)n1 [Atrazin] | 96.7 | 98.1 | 93.8 | 91.5 | 99.3 | 97.7 | 18.5
C[NH+]1C2CCC1CC(OC(=O)C(CO)c1ccccc1)C2 (stereo unspecified) [Atropine] | 94.2 | 93.2 | 90.9 | 91.5 | 106 | 99.7 | 11.1
COP(=O)(OC)SCn1c(=O)oc2cc(Cl)cnc21 [Azamethiphos] | 65.5 | 65.7 | 65.1 | 50.5 | 82.9 | 67 | 16.6
CCC1OC(=O)C(C)C(OC2CC(C)(OC)C(O)C(C)O2)C(C)C(OC2OC(C)CC([NH+](C)C)C2O)C(C)(O)CC(C)C[NH+](C)C(C)C(O)C1(C)O (stereo unspecified) [Azithromycin] | 77.4 | 93.7 | 90.8 | 96.7 | 97.9 | – | 13
COC=C(C(=O)[O-])c1ccccc1Oc1cc(Oc2ccccc2C#N)ncn1 [Azoxystrobin-acid] | 96.4 | 92.6 | 93.5 | 99.1 | 101 | 97.7 | 18
COC=C(C(=O)OC)c1ccccc1Oc1cc(Oc2ccccc2C#N)ncn1 [Azoxystrobin] | 96.9 | 96 | 92.8 | 93.6 | 102 | 99.4 | 18.9
COC(=O)C(C)N(C(=O)Cc1ccccc1)c1c(C)cccc1C (stereo unspecified) [Benalaxyl] | 95.9 | 93 | 96 | 105 | 97.6 | 94.9 | 21.1
CC(COc1ccccc1Cc1ccccc1)[NH+]1CCCCC1 (stereo unspecified) [Benproperine] | 93.2 | 111 | 93.7 | 70.7 | 117 | 109 | 16.2
CC(C)N1C(=O)c2ccccc2[N-]S1(=O)=O [Bentazon] | 97.3 | 97.5 | – | 93.1 | 105 | 101 | 17.8
CC(C)OC(=O)NC(C(=O)NC(C)c1nc2ccc(F)cc2s1)C(C)C (stereo unspecified) [Benthiavalicarb-isopropyl] | 94.2 | 94.6 | 95.3 | 94.3 | 108 | 102 | 19.7
O=c1[nH]sc2ccccc12 [Benzisothiazolin-3-on (=BIT)] | 79.3 | 76.3 | 72 | 142 | 86.7 | 22.6 | 14.2
COc1ccc(C(=O)c2ccccc2)c(O)c1 [Benzophenon-3 (=2-Hydroxy-4-methoxybenzophenon)] | 100 | 111 | 100 | 77.4 | 51.4 | 56.6 | 20.7
c1ccc2[nH]nnc2c1 [Benzotriazol] | 99.4 | – | – | 95.1 | 104 | 102 | 13.4
C[NH+]1C2CCC1C(C(=O)[O-])C(OC(=O)c1ccccc1)C2 (stereo unspecified) [Benzoylecgonin] | 97.8 | 96 | 94.8 | 95.1 | 120 | 110 | 12.8
CC(=O)OCC(=O)C1(O)C(C)CC2C3CCC4=CC(=O)C=CC4(C)C3(F)C(O)CC21C (stereo unspecified) [Betamethasone 21-acetate C] | 93.1 | 89.4 | 89 | 98.3 | 92.7 | 85.2 | 19.6
CC1CC2C3CCC4=CC(=O)C=CC4(C)C3(F)C(O)CC2(C)C1(O)C(=O)CO (stereo unspecified) [Betamethasone] | 93.8 | 88.9 | 90.5 | 98.7 | 104 | 102 | 18.7
CC(C)(Oc1ccc(CCNC(=O)c2ccc(Cl)cc2)cc1)C(=O)[O-] [Bezafibrat] | 98 | 98.8 | 92.9 | 94 | 104 | 103 | 19.5
CC(O)(CS(=O)(=O)c1ccc(F)cc1)C(=O)Nc1ccc(C#N)c(C(F)(F)F)c1 (stereo unspecified) [Bicalutamid] | 100 | 97 | 94.3 | 95.2 | – | 102 | 18.6
O=C([O-])c1cc(Oc2ccc(Cl)cc2Cl)ccc1[N+](=O)[O-] [Bifenox-acid] | 75.6 | 63.6 | 77 | 124 | 104 | 108 | 23.4
CC(C)[NH2+]CC(O)COc1ccc(COCCOC(C)C)cc1 (stereo unspecified) [Bisoprolol] | 103 | 91.8 | 91.4 | 89.8 | 110 | 98.1 | 13.8
Cn1cc(C(=O)Nc2ccc(F)cc2-c2ccc(Cl)c(Cl)c2)c(C(F)F)n1 [Bixafen] | 95.4 | 101 | 102 | 76.1 | 109 | 108 | 20.5
O=C(Nc1ccccc1-c1ccc(Cl)cc1)c1cccnc1Cl [Boscalid] | 102 | 97.2 | 95.2 | 104 | 88.4 | 105 | 19.4
N#Cc1cc(Br)c([O-])c(Br)c1 [Bromoxynil] | 92.1 | 82.5 | 86.9 | 108 | 101 | 90.3 | 18.6
O=[N+]([O-])C(Br)(CO)CO [Bronopol] | 13.9 | 6.4 | 7 | 7.8 | 52.8 | – | 9.24
CCCCOc1ccc(CC(=O)NO)cc1 [Bufexamac] | 88.6 | 83.9 | 83.3 | 84.7 | 93.4 | 71.9 | 17.9
